These results are taken from article PMC7821181, “MS Binding Assays for Glycine Transporter 2 (GlyT2) Employing Org25543 as Reporter Ligand” (Chemmedchem, 2020).

For one data set, the target named is T1, hGlyT2 (Homo sapiens, UniProt Q9Y345).
T1 construct: host or cells: HEK293 cells stably expressing hGlyT2; crude membrane fractions
T1 sequence (Q9Y345 1-797): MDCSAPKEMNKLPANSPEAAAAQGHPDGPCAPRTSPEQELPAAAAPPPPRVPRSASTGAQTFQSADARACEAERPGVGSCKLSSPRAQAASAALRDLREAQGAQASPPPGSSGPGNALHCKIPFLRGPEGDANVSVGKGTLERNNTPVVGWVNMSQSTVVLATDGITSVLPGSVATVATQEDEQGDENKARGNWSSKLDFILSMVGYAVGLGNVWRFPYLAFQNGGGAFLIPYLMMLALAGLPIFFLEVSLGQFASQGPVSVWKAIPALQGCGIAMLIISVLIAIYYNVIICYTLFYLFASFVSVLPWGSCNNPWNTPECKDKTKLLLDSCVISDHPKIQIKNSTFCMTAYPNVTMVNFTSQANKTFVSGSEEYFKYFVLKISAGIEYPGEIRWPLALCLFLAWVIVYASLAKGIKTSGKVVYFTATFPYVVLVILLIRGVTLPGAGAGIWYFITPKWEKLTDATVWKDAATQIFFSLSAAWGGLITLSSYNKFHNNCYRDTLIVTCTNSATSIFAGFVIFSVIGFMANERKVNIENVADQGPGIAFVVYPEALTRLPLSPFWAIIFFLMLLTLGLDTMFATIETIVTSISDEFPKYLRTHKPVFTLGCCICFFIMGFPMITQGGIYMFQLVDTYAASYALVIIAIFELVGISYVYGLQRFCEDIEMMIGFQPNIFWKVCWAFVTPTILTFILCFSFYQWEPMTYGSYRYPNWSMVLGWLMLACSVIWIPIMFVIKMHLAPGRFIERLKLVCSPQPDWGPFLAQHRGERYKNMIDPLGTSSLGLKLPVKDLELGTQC
Put plainly: GlyT2 MS Binding Assays: competition experiments with Org25543 as reporter ligand. How it is done:
For the development of the desired competitive MS Binding Assay, the general concept of this kind of binding experiments was followed, in which the affinity of a test compound is delineated from its potency to compete out a reporter ligand, in our case Org25543, from its target binding site. Accordingly, the target protein was incubated with a defined concentration of the reporter ligand and increasing concentration of the individual test compound. In detail, the competitors were studied at seven different concentration levels, which covered about three concentration log units, whereas the concentration of Org25543 was fixed to 10 nM. Thereafter, via the developed LC‐ESI‐MS/MS method the amount of bound marker (total binding) was determined for the samples obtained from the individual incubation mixtures by the common workup for MS Binding Assays. Nonspecific binding was again determined in a set of analogous experiments in which GlyT2 membrane fractions were replaced by material subjected to a heat‐shock before. The resulting amount of Org25543 binding was defined as 0 % level of specific reporter ligand binding. […] The thus determined IC50 values were finally used to calculate the corresponding K i values by means of the Cheng‐Prusoff equation.
For preparation of GlyT2 membrane preparations HEK293 cells, stably expressing the hGlyT2 with a confluence ≥90 %, were used (kindly provided by AbbVie (Wiesbaden, Germany)). As cell culture medium DMEM containing 10 % fetal bovine serum (m/v), 100 U mL^−1 penicillin, 100 μg mL^−1 streptomycin and […] hygromycin B was used and the cells were cultivated in dishes (143 cm^2) at 37 °C and 8 % CO2. The cells were detached from the dish by aspirating the medium, adding 12 mL cell culture medium without hygromycin B and pipetting the medium several times until the cell lawn was completely detached. Subsequently, the cells were washed twice with PBS (5 min, 1600 rpm, Biofuge Stratos, rotor: #3047, Heraeus, Hanau, Germany) and afterwards homogenized in incubation buffer (10 mM HEPES, 120 mM NaCl, 2 mM KCl, 1 mM MgCl2, 1 mM CaCl2, pH 7.5) using a Polytron PTA 10 S (Kinematica Polytron, Littau‐Luzern, Switzerland). After homogenization aliquots of about 1 mg protein were frozen and stored at −80 °C. To determine the amount of protein in the membrane preparation (after treatment with 100 mM NaOH for 1 h) the protein determination according to Bradford ^[63] was applied, using bovine serum albumin as standard for calibration. At the day of the assay the membrane preparation was rapidly thawed, diluted in 20 mL incubation buffer and centrifuged at 4 °C for 20 min at 20 500 rpm (Sorvall Evolution RC, rotor: SS34, Thermo. Electron, Hanau, Germany). Finally, the resulting pellet was resuspended in 6 mL incubation buffer yielding a protein concentration of ∼0.1–0.2 mg mL^−1.
In polypropylene 96‐well plates (1.2 mL well volume, Sarstedt) membrane preparations (∼5–10 μg protein) were incubated in the presence of the reporter ligand and, if required, test compounds in incubation buffer (10 mM HEPES, 120 mM NaCl, 2 mM KCl, 1 mM MgCl2, 1 mM CaCl2, pH 7.5) in a total volume of 250 μL at 37 °C in a Julabo SW‐20 C water bath (Julabo GmbH, Seelbach, Germany) for 1 h (every sample was prepared in triplicates). After the incubation 210 μL aliquots of the binding samples were transferred by means of a 12‐channel pipette onto 96‐well glass fiber filter plates (AcroPrep Advance, glass fiber, 1.0 μm, 350 μL; Pall Corporation, Port Washington, NY, USA) where the incubation was terminated by vacuum filtration (the samples were transferred and the incubation was terminated row after row; Multi Well Plate Vacuum Manifold, Pall, Dreieich, Germany).

Data set [1] concerns GlyT2. As to conditions: cited from earlier work; for pIC50 (literature; calcd): calcd from literature IC50; for IC50: read-out: Biological activity, IC50 (literature).
The conditions of data set [2]: cited from earlier work.
Details of data set [3]: method as in PMID 23962079. As to conditions: after intravenous injection; cited from earlier work.
In data set [4] the target is T2, GlyT2 (Homo sapiens, UniProt Q9Y345).
T2 construct: host or cells: HEK293 cells stably expressing hGlyT2; crude membrane fractions
T2 sequence (Q9Y345 1-797): T1 sequence (Q9Y345 1-797)
Put plainly: influence of DMA on binding of Org25543 towards GlyT2 in competition experiments. Particulars: DMA as competitor, up to a concentration of 2 % (215 mM). How it is done: Investigating adsorption of Org25543 to polypropylene container material To investigate the adsorption ability of Org25543 to polypropylene container material dilution series of Org25543 were prepared in reaction tubes (1.5 mL, PP, Sarstedt, Nümbrecht, Germany) using different solvents or solvent mixtures, respectively (H2O, acetonitrile, H2O/DMSO (80:20, v/v), H2O/N,N-dimethylacetamide (DMA; 80:20, 90:10 and 95:5 v/v)). At least five concentration levels (10-fold concentration; 10 nM – 625 pM) were prepared in each solvent and these concentration levels were diluted again 1:10 (final concentrations of Org25543: 1 nM – 62.5 pM) in a mixture of ammonium bicarbonate buffer (5 mM, pH7.8) and acetonitrile containing 111 pM [2H7]Org25543 (final concentration: 100 pM) that the final sample solvent equals the mobile phase.
Then the samples were subjected to LC-ESI-MS/MS quantification and the obtained peak area ratios of Org25543 and [ 2H7]Org25543 were plotted against the concentration of Org25543. By using linear regression analysis calibration curves were obtained for all dilution series and were compared to each other. The calibration curves are depicted in Figure S 4.
Investigating the influence of N,N-dimethylacetamide (DMA) on the binding of Org25543 towards GlyT2 in competition experiments […]

Data set [5] deals with GlyT2. As to conditions: ref 23; read-out: IC50 in [3H]glycine uptake assay; cited from earlier work.
Where [6] appears, read: read-out: Affinity, pKi (GlyT2 MS Binding Assays) (converted).

Entries after “also recorded” stand apart in the source; their conditions may differ. Read-outs that look alike come from different tables or passages of the source.

On to `CCCCC/C=C\C/C=C\C/C=C\C/C=C\CCCC(=O)NCC(=O)O` [N‐arachidonylglycine, N‐(1‐oxo‐(5Z,8Z,11Z,14Z)‐eicosatetraenyl)glycine], for which the Ki on hGlyT2 was 3.98 µM. In the data set on GlyT2 [1] (ref 52), the “pIC50 (literature; calcd)” value is given as 5.29 and the IC50 is 5.1 ± 3.1 µM. Besides, the “critical micelle concentration (CMC)” value in data set [2] (ref 61) is greater than 100 µM.
Consider `CCCCCCCC/C=C\CCCCCCCC(=O)O[C@H](CC(=O)[O-])C[N+](C)(C)C` [oleoyl‐L‐carnitine, Oleoyl‐L‐carnitine], for which, at hGlyT2 (setting [6]), the Ki is 2.63 µM. For the same compound, in the data set with GlyT2 [1] (ref 18), the “pIC50 (literature; calcd)” value is 6.47 and the IC50 is 0.34 µM. Also, the “critical micelle concentration (CMC)” value in data set [2] (ref 18) is 7.4 µM.
In the case of `N[C@@H](COC(c1cccc(F)c1)c1ccccc1OCc1ccccc1)C(=O)O` (stereo partly shown) [ALX1393, O‐[(2‐benzyloxyphenyl‐3‐flurophenyl)methyl]‐L‐serine], the Ki at hGlyT2 (setting [6]) is 1.17 µM. Also, the IC50 in the data set on GlyT2 [1] (ref 11, 40) was 0.026 to 0.1 µM. The “fraction crossing the blood‐brain‐barrier” value in data set [3] is listed as 5%.
`CC(=O)N(C)C` [DMA, N,N‐dimethylacetamide]: at GlyT2 [4], the “influence on Org25543 binding at GlyT2, in words” value is reported as “no influence on the Org25543 binding at GlyT2; also recorded: not effect Org25543 binding”.
For `COc1cc(C(=O)NCC2(N(C)C)CCCCC2)cc(OC)c1OCc1ccccc1` [compound 8], on hGlyT2 (setting [6]), the Ki was 0.0417 µM. Besides, in the data set with GlyT2 [1] (ref 23), the “pIC50 (literature; calcd)” value was 7.08 and the IC50 was 0.084 ± 0.003 µM. Besides, the IC50 with GlyT2 [5] was 0.084 µM.
